Measured values reported in publication PMC3764026, “Adaptive Evolution of Escherichia coli to an α-Peptide/β-Peptoid Peptidomimetic Induces Stable Resistance” (PLoS ONE, 2013).
Values after ≈ are worked out from the molar mass of the structure shown. Read-outs that look alike come from different tables or passages of the source.

How the values were obtained:
E. coli ATCC 25922 [1] = settings: wild-type E. coli ATCC 25922
Protocol: (§1) MIC was determined by using the micro-dilution method according to guidelines of the Clinical and Laboratory Standards Institute. Peptidomimetic 1 and erythromycin 1∶2 serial dilutions were prepared from 1024 µg/mL stock solutions to give a final range of 512-0.5 µg/mL in the wells. Ampicillin 1∶2 serial dilutions were prepared from a 256 µg/mL stock solution to give a final range of 128-0.13 µg/mL in the wells. Polymyxin B and gentamicin 1∶2 serial dilutions were prepared from a 64 µg/mL stock solution to give a final range of 32-0.03 µg/mL in the wells.
(§2) The population lineages were tested for their susceptibility towards peptidomimetic 1, polymyxin B, gentamicin and ampicillin. Single-culture isolates selected from these populations were additionally tested against peptidomimetic 1, polymyxin B, erythromycin and the five reference AMPs. To estimate the level of cross-resistance to closely related peptidomimetics, MIC determinations were performed for peptidomimetics 2 and 3 (Figure 1) towards selected isolates. The bacterial suspensions were grown overnight in MHB at 37°C for determination of the population MIC, or individual isolates were grown overnight on non-selective BHI agar at 37°C. […] In all experiments, bacterial cells were suspended in 0.9% saline to give a turbidity of 0.13 at OD546 (approximately 1×10^8 CFU/mL) and diluted in MHB pH 7.4 to a final concentration of 5×10^5 CFU/mL in each well. Polypropylene plates (Nunc 442587) were used to minimize peptide binding, and the incubation time was 18–20 hours at 37°C. […] MIC was found in a minimum of two technical (population MIC) or biological (isolate MIC) replicates as the lowest concentration of the AMP or antibiotic where no visible growth was observed.
(§3) Four isolates, i.e. 2-7, 4-4, 5-6 and 7-3, a representative isolate from four different lineages, were revived from freeze storage. The four isolates were grown in 25–50% blood plasma and in 25–50% heat-inactivated plasma as previously described. Blood plasma was obtained from two different blood donors using sodium citrate as anticoagulant and experiments were performed on at least two independent days. Both donors were fully informed about the study and purpose and a written consent has been received. […] For this the 1∶2 serial dilutions were made in MHB with 50% blood plasma added to give a final concentration of 25% plasma in the wells.

[2] = tested on: peptidomimetic-adapted E. coli isolates; settings: for Potentiation (ability of plasma to interact synergistically with peptidomimetic 1): MHB vs MHB +25% plasma; for MIC in MHB +25% plasma: MHB with 25% human blood plasma (sodium citrate)
Protocol: as §1, §2, §3

[3] = tested on: Escherichia coli ATCC 25922; experiment: Continuous selection experiment; format: cell-based
Protocol: Continuous selection of resistance was performed for peptidomimetic 1 (Figure 1) and for the clinically relevant natural antimicrobial peptide, polymyxin B. A bacterial suspension of a single colony of E. coli ATCC 25922 was re-inoculated (10 µl) five times in unsupplemented MHB (990 µl). It was then re-inoculated in MHB supplemented with peptidomimetic 1 (ten lineages) or polymyxin B (ten lineages), and after ten re-inoculations at constant peptidomimetic or polymyxin B concentration, the concentrations were doubled. […] Four lineages grown in MHB with MilliQ water were included as control. Re-inoculations were performed twice a day, but were reduced to once a day when growth was slower as assessed by turbidity of the cultures. The total number of passages (supplemented with peptidomimetic/AMP) was 77 times equivalent to approx. 500 generations. For each increase in concentration the lineages were preserved as freezing stocks. Ten colony isolates were randomly selected from each lineage population at 32×MIC and preserved as freezing stocks.

[4] = tested on: peptidomimetic-adapted E. coli isolates 2-7 and 7-3; experiment: Growth rate in MHB supplemented with peptidomimetic 1, adapted isolates; format: cell-based, Escherichia coli
Protocol: (§4) To evaluate whether resistance altered the physiology of the isolates, we determined the growth rate of all forty isolates from lineage 2, 4, 5 and 7 as well as of E. coli ATCC 25922 in unsupplemented MHB media. Additionally, we determined the growth rate of the four isolates 2-7, 4-4, 5-6 and 7-3, in MHB supplemented with peptidomimetic 1 at ½×wild type MIC or 1×wild type MIC (i.e. 4 and 8 µg/mL). […] Optical density readings were obtained at 570 nm at 10–12 minute increments on cultures grown at 37°C over 24 hours (unsupplemented MHB) or 72 hours (supplemented MHB) using the automated Bioscreen C system (Labsystems, Helsinki, Finland). Growth rates were found using linear regression on ln(initial CFU/mL) vs. detection time (i.e. the time until a 0.5 unit increase in absorbance was reached) for inoculum sizes ranging from 10^2–10^7 CFU/mL [58]. Data were analysed in GraphPad Prism version 4.03 using One-Way ANOVA followed by Dunnett’s Test to correct for multiple testing. Control groups were E. coli ATCC 25922 (in the absence of peptidomimetic) or E. coli ATCC 25922/isolates grown in unsupplemented media (in the presence of peptidomimetic). Significance levels were in all tests set at p<0.05. All experiments were performed in duplicate on at least two independent days.

E. coli ATCC 25922 [5] = experiment: Growth rate in MHB supplemented with peptidomimetic 1, wild type; format: cell-based, Escherichia coli; settings: E. coli ATCC 25922 exposed to 1/16 or 1/32×wt MIC of peptidomimetic 1; p>0.05
Protocol: as §4

CC(=O)N[C@@H](CCCCNC(=N)N)C(=O)N(CCC(=O)N[C@@H](CCCCNC(=N)N)C(=O)N(CCC(=O)N[C@@H](CCCCNC(=N)N)C(=O)N(CCC(=O)N[C@@H](CCCCNC(=N)N)C(=O)N(CCC(=O)N[C@@H](CCCCNC(=N)N)C(=O)N(CCC(=O)N[C@@H](CCCCNC(=N)N)C(=O)N(CCC(N)=O)[C@@H](C)c1ccccc1)[C@@H](C)c1ccccc1)[C@@H](C)c1ccccc1)[C@@H](C)c1ccccc1)[C@@H](C)c1ccccc1)[C@@H](C)c1ccccc1 [peptidomimetic 1]
Potentiation (ability of plasma to interact synergistically with peptidomimetic 1) (E. coli ATCC 25922 [1]; MHB vs MHB +25% plasma): Weak
MIC in MHB +25% plasma (E. coli ATCC 25922 [1]; MHB with 25% human blood plasma (sodium citrate)): 2 µg/mL (≈ 0.938 µM)
Potentiation (ability of plasma to interact synergistically with peptidomimetic 1) ([2]; isolate 2–7): Strong
MIC in MHB +25% plasma ([2]; isolate 2–7): 0.25 to 2 µg/mL
Potentiation (ability of plasma to interact synergistically with peptidomimetic 1) ([2]; isolate 4–4): Weak
MIC in MHB +25% plasma ([2]; isolate 4–4): 1 to 4 µg/mL
Potentiation (ability of plasma to interact synergistically with peptidomimetic 1) ([2]; isolate 5–6): Weak
MIC in MHB +25% plasma ([2]; isolate 5–6): 4 to 8 µg/mL
Potentiation (ability of plasma to interact synergistically with peptidomimetic 1) ([2]; isolate 7–3): Strong
MIC in MHB +25% plasma ([2]; isolate 7–3): 1 to 2 µg/mL
lineages that eventually grew at 32×wt MIC ([3]; ten lineages per agent, from 1/16×wt MIC, doubled stepwise, 77 inoculations, approx. 500 generations, 32×wt MIC = 256 µg/mL peptidomimetic 1, 32 µg/mL polymyxin B): All ten
growth of unexposed control lineages at 4×wt MIC ([3]; two controls per agent, 32 µg/mL peptidomimetic 1 or 4 µg/mL polymyxin B): failed to grow
growth rate ([4]; isolate 2–7, MHB with 4 µg/mL peptidomimetic 1 (1/32×MIC), p<0.01 vs unsupplemented): significantly reduced growth rate
growth rate ([4]; isolate 2–7, MHB with 8 µg/mL peptidomimetic 1 (1/16×isolate MIC), p<0.01 vs unsupplemented, Bioscreen C, 37°C, 72 h): significantly reduced
growth rate ([4]; isolate 7-3, MHB with 8 µg/mL peptidomimetic 1 (1/16×isolate MIC), p<0.05 vs unsupplemented, Bioscreen C, 37°C, 72 h): significantly reduced
growth rate (E. coli ATCC 25922 [5]): reduced growth rate was not seen
